Experimental data reported in patent US7858640B2, “Quinolines and their therapeutic use” (Pulmagen Therapeutics (Asthma) Limited, priority 2005, dated 2010).

Biological target: T1, CRTH2 receptor (Homo sapiens, UniProt Q9Y5Y4)
T1 sequence (Q9Y5Y4 1-395): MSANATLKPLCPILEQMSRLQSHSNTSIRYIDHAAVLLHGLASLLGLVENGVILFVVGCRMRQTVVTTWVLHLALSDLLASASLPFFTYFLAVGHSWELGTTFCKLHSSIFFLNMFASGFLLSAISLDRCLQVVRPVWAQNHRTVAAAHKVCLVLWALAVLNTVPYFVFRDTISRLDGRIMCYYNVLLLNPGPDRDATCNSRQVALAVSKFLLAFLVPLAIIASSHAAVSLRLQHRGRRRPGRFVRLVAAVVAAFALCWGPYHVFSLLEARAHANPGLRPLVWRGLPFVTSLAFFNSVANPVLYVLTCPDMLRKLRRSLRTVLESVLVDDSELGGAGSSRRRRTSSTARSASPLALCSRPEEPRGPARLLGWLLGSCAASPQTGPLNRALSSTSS
Assay: Radioligand binding assay ([3H]-PGD2 displacement, SPA)
Design: expressed in transfected cells; host or cells: HEK cell membranes
Conditions: HEK cell membranes expressing the CRTH2 receptor, 1 nM [3H]-PGD2; Ki from IC50 by Cheng-Prusoff
Protocol: Radioligand Binding Assay
The receptor binding assay is performed in a final volume of 200 μL binding buffer [10 mM BES (pH 7.4), 1 mM EDTA, 10 mM manganese chloride, 0.01% BSA] and 1 nM [^3H]-PGD2 (Amersham Biosciences UK Ltd). Ligands are added in assay buffer containing a constant amount of DMSO (1% by volume). Total binding is determined using 1% by volume of DMSO in assay buffer and non-specific binding is determined using 10 μM of unlabeled PGD2 (Sigma). Human embryonic kidney (HEK) cell membranes (3.5 μg) expressing the CRTH2 receptor are incubated with 1.5 mg wheatgerm agglutinin SPA beads and 1 nM [^3H]-PGD2 (Amersham Biosciences UK Ltd) and the mixture incubated for 3 hours at room temperature. Bound [^3H]-PGD2 is detected using a Microbeta TRILUX liquid scintillation counter (Perkin Elmer). Compound IC50 value is determined using a 6-point dose response curve in duplicate with a semi-log compound dilution series. IC50 calculations are performed using Excel and XLfit (Microsoft), and this value is used to determine a Ki value for the test compound using the Cheng-Prusoff equation.

Row | Ki | SMILES
1 | < 100 nM | COc1c(Cc2ccc(Cl)cc2)c(C)nc2c(Cl)ccc(OCC(=O)O)c12 [Example 1, [8-chloro-3-(4-chlorobenzyl)-4-methoxy-2-methylquinolin-5-yloxy]acetic Acid]
2 | < 100 nM | Cc1nc2c(Cl)ccc(OCC(=O)O)c2c(C)c1Cc1ccc(Cl)cc1 [Example 2, [8-chloro-3-(4-chlorobenzyl)-2,4-dimethylquinolin-5-yloxy]acetic Acid]
3 | < 100 nM | CCOc1nc2cc(C)cc(CC(=O)O)c2c(C)c1Cc1ccc(Cl)cc1 [Example 3, [3-(4-chlorobenzyl)-2-ethoxy-4,7-dimethylquinolin-5-yl]acetic Acid]
4 | < 1000 nM | Cc1cc(OCC(=O)O)c2c(C)c(Cc3ccc(Cl)cc3)c(C)nc2c1 [Example 4, [3-(4-chlorobenzyl)-2,4,7-trimethylquinolin-5-yloxy]acetic Acid]
5 | < 1000 nM | Cc1cc(CC(=O)O)c2c(C)c(Cc3ccc(Cl)cc3)c(C)nc2c1 [Example 5, [3-(4-chlorobenzyl)-2,4,7-trimethylquinolin-5-yl]acetic Acid]
6 | < 100 nM | Cc1nc2c(Cl)ccc(CC(=O)O)c2c(C)c1Cc1ccc(Cl)cc1 [Example 6, [8-chloro-3-(4-chlorobenzyl)-2,4-dimethylquinolin-5-yl]acetic Acid]
7 | < 100 nM | Cc1nc2c(Cl)ccc(OCC(=O)O)c2c(C)c1Oc1ccc(Cl)cc1 [Example 7, [8-chloro-3-(4-chlorophenoxy)-2,4-dimethylquinolin-5-yloxy]acetic Acid]
8 | < 100 nM | Cc1nc2c(Cl)ccc(OCC(=O)O)c2c(C)c1Sc1ccc(Cl)cc1 [Example 8, [8-chloro-3-(4-chlorophenylsulfanyl)-2,4-dimethylquinolin-5-yloxy]acetic Acid]
9 | < 100 nM | Cc1nc2c(Cl)ccc(OCC(=O)O)c2c(OC(F)F)c1Cc1ccc(Cl)cc1 [Example 9, [8-chloro-3-(4-chlorobenzyl)-4-difluoromethoxy-2-methylquinolin-5-yloxy]acetic Acid]
10 | < 1000 nM | Cc1nc2c(Cl)ccc(OCC(=O)O)c2cc1Cc1ccc(Cl)cc1 [Example 10, [8-chloro-3-(4-chlorobenzyl)-2-methylquinolin-5-yloxy]acetic Acid]
11 | < 100 nM | Cc1nc2cc(Cl)cc(CC(=O)O)c2c(C)c1Cc1ccc(Cl)cc1 [Example 11, [7-chloro-3-(4-chlorobenzyl)-2,4-dimethylquinolin-5-yl]acetic acid]
12 | < 1000 nM | Cc1nc2c(Cl)ccc(OCC(=O)NS(C)(=O)=O)c2c(C)c1Cc1ccc(Cl)cc1 [Example 13, N-{2-[8-chloro-3-(4-chlorobenzyl)-2,4-dimethylquinolin-5-yloxy]-acetyl}methanesulfonamide]
13 | < 10000 nM | Cc1nc2c(Cl)ccc(OCC(=O)NS(=O)(=O)c3ccccc3)c2c(C)c1Cc1ccc(Cl)cc1 [Example 14, N-{2-[8-chloro-3-(4-chlorobenzyl)-2,4-dimethylquinolin-5-yloxy]-acetyl}benzenesulfonamide]
14 | < 100 nM | Cc1nc2c(Cl)ccc(CC(=O)O)c2c(C)c1Oc1ccc(Cl)cc1 [Example 15, [8-chloro-3-(4-chlorophenoxy)-2,4-dimethylquinolin-5-yl]acetic Acid]
15 | < 100 nM | CCc1c(Cc2ccc(Cl)cc2)c(C)nc2c(Cl)ccc(OCC(=O)O)c12 [Example 16, [8-chloro-3-(4-chlorobenzyl)-4-ethyl-2-methylquinolin-5-yloxy]acetic acid]
16 | < 100 nM | CCc1nc2c(Cl)ccc(OCC(=O)O)c2c(C)c1Cc1ccc(Cl)cc1 [Example 17, [8-chloro-3-(4-chlorobenzyl)-2-ethyl-4-methylquinolin-5-yloxy]acetic Acid]

Row | Ki | SMILES
17 | < 100 nM | Cc1c(Cc2ccc(F)cc2)c(OC(F)F)nc2c(Cl)ccc(OCC(=O)O)c12 [Example 19, [8-chloro-2-difluoromethoxy-3-(4-fluorobenzyl)-4-methylquinolin-5-yloxy]acetic acid]
18 | < 100 nM | Cc1nc2c(Cl)ccc(OCC(=O)O)c2c(C)c1S(=O)(=O)c1ccc(Cl)cc1 [Example 21, [8-chloro-3-(4-chlorobenzenesulfonyl)-2,4-dimethylquinolin-5-yloxy]acetic Acid]
19 | < 100 nM | Cc1nc2c(Cl)ccc(OCC(=O)O)c2c(C)c1[S+]([O-])c1ccc(Cl)cc1 (stereo not shown) [Example 22, [8-chloro-3-(4-chlorobenzenesulfinyl)-2,4-dimethylquinolin-5-yloxy]acetic Acid]
20 | < 10000 nM | Cc1nc2c(Cl)ccc(OCc3nnn[nH]3)c2c(C)c1Cc1ccc(Cl)cc1 [Example 23, 8-chloro-3-(4-chlorobenzyl)-2,4-dimethyl-5-(1H-tetrazol-5-ylmethoxy)quinoline]
21 | < 100 nM | Cc1nc2c(Cl)ccc(OCC(=O)O)c2c(OC(F)F)c1Sc1ccc(Cl)cc1 [Example 24, [8-chloro-3-(4-chlorophenylsulfanyl)-4-difluoromethoxy-2-methyl-quinolin-5-yloxy]acetic Acid]
22 | < 1000 nM | Cc1nc2c(Cl)ccc(CC(=O)O)c2c(OC(F)F)c1Cc1ccc(Cl)cc1 [Example 25, [8-chloro-3-(4-chlorobenzyl)-4-difluoromethoxy-2-methylquinolin-5-yl]acetic acid]
23 | < 100 nM | Cc1nc2c(Cl)ccc(OCC(=O)O)c2c(OC(F)F)c1Cc1ccc(S(C)(=O)=O)cc1 [Example 26, [8-chloro-4-difluoromethoxy-3-(4-methanesulfonylbenzyl)-2-methylquinolin-5-yloxy]acetic acid]
24 | < 100 nM | Cc1nc2c(F)ccc(OCC(=O)O)c2c(OC(F)F)c1Cc1ccc(Cl)cc1 [Example 27, [3-(4-chlorobenzyl)-4-difluoromethoxy-8-fluoro-2-methylquinolin-5-yloxy]acetic acid]
25 | < 1000 nM | Cc1nc2c(Cl)ccc(CC(=O)O)c2c(C)c1Cc1ccc(S(C)(=O)=O)cc1 [Example 28, [8-chloro-3-(4-methanesulfonylbenzyl)-2,4-dimethylquinolin-5-yl]acetic acid]
26 | < 100 nM | CCc1nc2c(Cl)ccc(OCC(=O)O)c2c(OC(F)F)c1Cc1ccc(S(C)(=O)=O)cc1 [Example 29, [8-chloro-4-difluoromethoxy-2-ethyl-3-(4-methanesulfonylbenzyl)-quinolin-5-yloxy]acetic acid]
27 | < 100 nM | Cc1c(Cc2ccc(Cl)cc2)c(OC(F)F)nc2c(F)ccc(OCC(=O)O)c12 [Example 30, [3-(4-chlorobenzyl)-2-difluoromethoxy-8-fluoro-4-methylquinolin-5-yloxy]-acetic Acid]
28 | < 1000 nM | Cc1c(Cc2ccc(F)cc2)c(OC(C)C)nc2c(Cl)ccc(OCC(=O)O)c12 [Example 31, [8-chloro-3-(4-fluorobenzyl)-2-isopropoxy-4-methylquinolin-5-yloxy]acetic Acid]
29 | < 1000 nM | Cc1nc2c(Cl)ccc(OCC(=O)O)c2c(OC(C)C)c1Cc1ccc(F)cc1 [Example 32, [8-chloro-3-(4-fluorobenzyl)-4-isopropoxy-2-methylquinolin-5-yloxy]acetic Acid]
30 | < 100 nM | Cc1nc2c(Cl)ccc(OC(C)C(=O)O)c2c(C)c1Cc1ccc(Cl)cc1 (stereo not shown) [Example 33, 2-[8-chloro-3-(4-chlorobenzyl)-2,4-dimethylquinolin-5-yloxy]propionic Acid]
31 | < 100 nM | Cc1c(Cc2ccc(S(C)(=O)=O)cc2)c(OC(F)F)nc2c(Cl)ccc(OCC(=O)O)c12 [Example 34, [8-chloro-2-difluoromethoxy-3-(4-methanesulfonylbenzyl)-4-methylquinolin-5-yloxy]acetic Acid]
